Source: ChEMBL document CHEMBL3885861, “Open TG-GATES”

Species on record: Rattus norvegicus
Assay: Open TG-GATES - Regimen: Single
Format: toxicity, organism-based, Sprague-Dawley
Parameters: regimen Single, gender Male, age 6 weeks
Conditions: in vivo, po, 100 mg/kg, route gavage, dose level Low; for APTT / Bas / Eos / Fbg / Hb / Ht / Lym / MCH / MCHC / MCV / Mono / Neu / PT / Plat / RBC / Ret / WBC: tissue Blood; for KIDNEY_L / KIDNEY_R / KIDNEY_TOTAL: tissue Kidney; for LIVER: tissue Liver; for A/G / ALP / ALT / AST / BUN / CRE / Ca / Cl / DBIL / GLC / IP / K / LDH / Na / PL / RALB / TBIL / TC / TG / TP / gamma-GTP: tissue Plasma

## CNC(=C[N+](=O)[O-])NCCSCc1ccc(CN(C)C)o1 [RANITIDINE]
3 h
  TERMINAL_BW: 216.8 g
  APTT: 19.1 s
  Bas: 0%
  Eos: 1%
  Fbg: 225.4 mg/dL
  Hb: 13.7 g/dL
  Ht: 39.7%
  Lym: 76.8%
  MCH: 22.3 pg
  MCHC: 34.5%
  MCV: 64.5 fL
  Mono: 2.8%
  Neu: 15.2%
  PT: 12.1 s
  Plat: 118 x10_4/uL
  RBC: 616 x10_4/ul
  Ret: 7.4%
  WBC: 87.6 x10_2/uL
  KIDNEY_L: 1 g
  KIDNEY_R: 1 g
  KIDNEY_TOTAL: 2 g
  LIVER: 10.3 g
  A/G: 1.6
  ALP: 1082.6 IU/L
  ALT: 38.2 IU/L
  AST: 66.6 IU/L
  BUN: 11.4 mg/dL
  CRE: 0.4 mg/dL
  Ca: 10.7 mg/dL
  Cl: 103.8 meq/L
  DBIL: 0.078 mg/dL
  GLC: 190.6 mg/dL
  IP: 8.7 mg/dL
  K: 3.7 meq/L
  LDH: 153 IU/L
  Na: 141 meq/L
  PL: 137.8 mg/dL
  RALB: 3.4 g/dL
  TBIL: 0.1 mg/dL
  TC: 73.2 mg/dL
  TG: 57.4 mg/dL
  TP: 5.6 g/dL
  gamma-GTP: 1.2 IU/L
6 h
  TERMINAL_BW: 216.3 g
  APTT: 17.7 s
  Bas: 0%
  Eos: 0.6%
  Fbg: 229.6 mg/dL
  Hb: 12.9 g/dL
  Ht: 37.1%
  Lym: 73.2%
  MCH: 22 pg
  MCHC: 34.8%
  MCV: 63.2 fL
  Mono: 2.2%
  Neu: 19.6%
  PT: 12.3 s
  Plat: 118.8 x10_4/uL
  RBC: 588 x10_4/ul
  Ret: 7.3%
  WBC: 96.3 x10_2/uL
  KIDNEY_L: 1 g
  KIDNEY_R: 1 g
  KIDNEY_TOTAL: 2 g
  LIVER: 9.3 g
  A/G: 1.7
  ALP: 929.4 IU/L
  ALT: 34 IU/L
  AST: 66.4 IU/L
  BUN: 9.6 mg/dL
  CRE: 0.4 mg/dL
  Ca: 10.5 mg/dL
  Cl: 103.4 meq/L
  DBIL: 0.074 mg/dL
  GLC: 198 mg/dL
  IP: 8.6 mg/dL
  K: 3.8 meq/L
  LDH: 168.8 IU/L
  Na: 140.4 meq/L
  PL: 134.2 mg/dL
  RALB: 3.4 g/dL
  TBIL: 0.1 mg/dL
  TC: 73 mg/dL
  TG: 52.8 mg/dL
  TP: 5.4 g/dL
  gamma-GTP: 1.4 IU/L
9 h
  TERMINAL_BW: 213.4 g
  APTT: 19.1 s
  Bas: 0%
  Eos: 1%
  Fbg: 217.2 mg/dL
  Hb: 13.2 g/dL
  Ht: 37.7%
  Lym: 72%
  MCH: 22.1 pg
  MCHC: 34.9%
  MCV: 63.3 fL
  Mono: 2.6%
  Neu: 21.8%
  PT: 12.6 s
  Plat: 116.5 x10_4/uL
  RBC: 596.2 x10_4/ul
  Ret: 7.2%
  WBC: 81.2 x10_2/uL
  KIDNEY_L: 1 g
  KIDNEY_R: 1 g
  KIDNEY_TOTAL: 1.9 g
  LIVER: 8.4 g
  A/G: 1.6
  ALP: 835.8 IU/L
  ALT: 32.2 IU/L
  AST: 68 IU/L
  BUN: 10 mg/dL
  CRE: 0.3 mg/dL
  Ca: 10.3 mg/dL
  Cl: 103.4 meq/L
  DBIL: 0.062 mg/dL
  GLC: 194.2 mg/dL
  IP: 8.4 mg/dL
  K: 3.6 meq/L
  LDH: 144.4 IU/L
  Na: 140.4 meq/L
  PL: 132.6 mg/dL
  RALB: 3.3 g/dL
  TBIL: 0.1 mg/dL
  TC: 78.6 mg/dL
  TG: 22.2 mg/dL
  TP: 5.3 g/dL
  gamma-GTP: 1.4 IU/L
24 h
  TERMINAL_BW: 226.3 g
  APTT: 19.4 s
  Bas: 0%
  Eos: 1%
  Fbg: 227 mg/dL
  Hb: 13.9 g/dL
  Ht: 39.7%
  Lym: 79.2%
  MCH: 22.7 pg
  MCHC: 35.2%
  MCV: 64.4 fL
  Mono: 2.4%
  Neu: 15.2%
  PT: 12 s
  Plat: 116.2 x10_4/uL
  RBC: 617.2 x10_4/ul
  Ret: 6.5%
  WBC: 100.7 x10_2/uL
  KIDNEY_L: 1 g
  KIDNEY_R: 1 g
  KIDNEY_TOTAL: 2 g
  LIVER: 10.7 g
  A/G: 1.5
  ALP: 931.8 IU/L
  ALT: 33.8 IU/L
  AST: 65.6 IU/L
  BUN: 14.4 mg/dL
  CRE: 0.4 mg/dL
  Ca: 10.8 mg/dL
  Cl: 102.2 meq/L
  DBIL: 0.086 mg/dL
  GLC: 196.6 mg/dL
  IP: 7.6 mg/dL
  K: 4 meq/L
  LDH: 147.8 IU/L
  Na: 140.2 meq/L
  PL: 142.8 mg/dL
  RALB: 3.3 g/dL
  TBIL: 0.1 mg/dL
  TC: 70.8 mg/dL
  TG: 90 mg/dL
  TP: 5.5 g/dL
  gamma-GTP: 1 IU/L
